Each structure is given as a SMILES string. ± gives the expanded uncertainty stated by the source.

The nature of data set [1]: xn = mol fraction of the nth substance listed. The following applies: 100 kPa, Liquid, x1 = 1; for speed of sound: Frequency=3 MHz, Single path-length method; for mass density: Vibrating tube method.
The conditions of data set [2]: 100 kPa, Liquid; for speed of sound: Frequency=3 MHz, Single path-length method; for mass density: Vibrating tube method.

As usually defined, the speed of sound is the propagation velocity of pressure waves in the medium. The term mass density denotes mass per unit of volume. Turning to `CCO` [ethanol] + OCC(O)CO, the speed of sound in data set [1] (283.15 K) is listed as 1196.8 ± 4.1 m/s; in data set [1] (293.15 K) it was 1162.3 ± 4.1 m/s; in data set [1] (303.15 K), 1128.2 ± 4.1 m/s; in data set [1] (313.15 K) it was 1094.5 ± 4.1 m/s. Besides, the mass density is 798 ± 1 kg/m3 in data set [1] (283.15 K), 790 ± 1 kg/m3 in data set [1] (293.15 K), 781 ± 1 kg/m3 in data set [1] (303.15 K) and 772 ± 1 kg/m3 in data set [1] (313.15 K).

For the molecule `OCC(O)CO` [glycerol], the speed of sound worked out at 1942.3 ± 6.1 m/s in data set [2] (283.15 K), 1922.9 ± 6.1 m/s in data set [2] (293.15 K), 1901 ± 6.1 m/s in data set [2] (303.15 K) and 1879.3 ± 6.1 m/s in data set [2] (313.15 K). The mass density was determined as 1267 ± 1 kg/m3 in data set [2] (283.15 K), 1261 ± 1 kg/m3 in data set [2] (293.15 K), 1255 ± 1 kg/m3 in data set [2] (303.15 K) and 1248 ± 1 kg/m3 in data set [2] (313.15 K).

Consider `CO` [methanol] + OCC(O)CO, for which the speed of sound in data set [1] (283.15 K) turned out to be 1153.3 ± 4.1 m/s; in data set [1] (293.15 K), 1119.6 ± 4.1 m/s; in data set [1] (303.15 K) it was 1086.6 ± 4.1 m/s; in data set [1] (313.15 K) it was 1054.2 ± 4.1 m/s. The mass density worked out at 801 ± 1 kg/m3 in data set [1] (283.15 K), 791 ± 1 kg/m3 in data set [1] (293.15 K), 782 ± 1 kg/m3 in data set [1] (303.15 K) and 772 ± 1 kg/m3 in data set [1] (313.15 K).

For the origin of these results see the NIST ThermoML archive (doi:10.1016/j.jct.2017.01.011).
